Laboratory results as given in article PMC10820527, “Synthesis, Characterization, and Investigation of Anti-Inflammatory and Cytotoxic Activities of Novel Thiourea Derivatives of Naproxen” (Pharmaceutics, 2023).

Legend:
Assay type in all cases: cell-based, human
[1] = system: proapoptotic protein Bax; test: Assessment of apoptosis: active Bax expression (flow cytometry); conditions: HeLa cells, 24 h, IC50 concentration, p > 0.05
Description: (§1) The aim of this study was to determine the expression of proteins that play a key role in apoptosis. The level of expression of the proapoptotic protein Bax, antiapoptotic protein Bcl-2, and the percentage of cells containing active caspase-3 was evaluated. […] Additionally, HeLa cells were fixed, permeabilized, and rinsed with ice-cold PBS (Fixation and Permeabilization Kit, eBioscience, San Diego, CA, USA). The cells were treated for 15 min at room temperature with a 1:1000 Bcl-2 fluorescein isothiocyanate (FITC) primary antibody (mhbcl01, Life Technologies, Carlsbad, CA, USA) to stain them. For further labeling, permeabilized HeLa cells were incubated with primary antibodies for active-Bax (N20, sc-493; Santa Cruz Biotech Inc., Dallas, TX, USA) and cleaved caspase-3 (#9661, Cell signaling Technology, Danvers, MA, USA) at a ratio of 1:1000 for 30 min. […] With the FC500 (Beckman Coulter), fluorescence of at least 15,000 events/samples had been measured. Negative control antibodies that matched the isotype were used to normalize the fluorescence intensity. The degree of expression of these proteins was indicated by the mean fluorescence intensities for Bax and Bcl-2 (MFIs), which were computed as the ratio of raw mean channel fluorescence to isotype control levels, respectively. […]

[2] = system: HeLa cells; test: Cell cycle analysis (PI staining, flow cytometry); conditions: 24 h, IC50 concentration, p < 0.05
Description: The next step in this study was to evaluate whether the rate of division of HeLa tumor cells slows down under the influence of tested compounds. To examine the potential effect of compounds 3 and 8 on the cell cycle of HeLa cells, the cell line was incubated and treated with previously calculated IC50 values. The control population of untreated cells was also harvested and washed in the above-mentioned manner. Furthermore, HeLa cells were harvested, washed with PBS, and fixed with 70% ethanol at +4 °C. Cells were agglomerated and finally resuspended in 1 mL PBS containing RNAse A (500 μg/mL). After 30 min of incubation, cells were stained with 5 μL PI (10 mg/mL PBS). After 15 min of incubation in the dark, the samples were examined using a Beckman Coulter FC500 flow cytometer.

[3] = system: active caspase-3; test: Assessment of apoptosis: cells containing active caspase-3 (flow cytometry); conditions: HeLa cells, 24 h, IC50 concentration, p < 0.05
Description: as §1

[4] = system: HeLa cells; test: Annexin V/PI flow cytometry (type of cell death)
Description: (§2) The type of cell death induced by compounds 3 and 8 was determined by the annexin V–fluorescein isothiocyanate (FITC)/propidium iodide (PI) Apoptosis Kit (BD Biosciences, Franklin Lakes, NJ, USA). […] Furthermore, tested HeLa cells were trypsinized, washed in PBS, centrifuged, and resuspended in 100 μL of ice-cold binding buffer. The tested cells were then stained with both 10 μL of Annexin V-FITC and 20 μL of […], incubated for 15 min in the dark at room temperature, and 400 μL of binding buffer was added to each tube. The obtained samples were measured with a flow cytometer Cytomics FC500 (Beckman Coulter, Brea, CA, USA). In addition, the obtained data were analyzed using FlowJo V10 Software. Measurements were presented as the representative density plots of Annexin V-FITC and PI staining and the average values of three independent experiments.

[5] = Annexin V/PI flow cytometry (type of cell death); conditions: human; HeLa cells, 24 h, IC50 concentration; representative plot; read-out: viable cells (Q4, lower left quadrant)
Description: as §2

[6] = system: antiapoptotic protein Bcl-2; test: Assessment of apoptosis: Bcl-2 expression (flow cytometry); conditions: HeLa cells, 24 h, IC50 concentration, p > 0.05
Description: as §1

## COc1ccc2cc([C@H](C)C(=O)NC(=S)Nc3ccccc3)ccc2c1 [Compound 8, (S)-2-(6-methoxynaphthalen-2-yl)-N-(phenylcarbamothioyl)propanamide]
[1]
  Amount of proapoptotic Bax (in words): insignificantly changed
[2]
  Effect on cell cycle of HeLa cells (in words): induced G0/G1 phase arrest
[3]
  Percentage of cells containing active caspase-3 (in words): increased compared to the untreated cells
[4]; 24 h of treatment, p < 0.05
  Type of HeLa cell death induced (in words): induced apoptosis
[4]; HeLa cells, 24 h, IC50 concentration, Annexin V-FITC/PI
  late apoptotic cells (Q2, upper right quadrant): 1–3%
[5]
  viability at 24 h: 49.2%
[6]
  Amount of the antiapoptotic protein Bcl-2 (in words): insignificantly changed
